{"source": "patent US10113150B2", "about": "“Engineered cardiac tissues and methods of using them” (InvivoSciences, Inc., priority 2011, dated 2018)", "key": {"[1]": {"test_system": "mitochondrial membrane potential of EHTs", "test": "Mitochondrial membrane potential (MMP) of EHTs by TMRE fluorescence", "assay_type": "cell-based, rat", "text": "The bottoms of the 8-well chambers were sealed with glass coverslips so that EHT cells could be observed using various optical instruments including microscopes and fluorescence plate readers in real time or after fixations. […] Mitochondria produce ATP via the electrochemical/osmotic gradient (˜180 mV) generated and maintained by the electron transport chain. Therefore, highly charged mitochondria produce ATP to support cardiac contractions.\nUsing a fluorescence plate reader (Synergy™ HT, BioTek U.S., Winooski, V T), we simultaneously measured TMRE's fluorescent signal (543 nm excitation/605±16 nm emission) and EHT contractions to determine the coupling between MMP and cardiac contractility. After a short (15-min) administration of 900 μM DNP (2,4-dinitrophenol), a potent uncoupler of MMP (FIG. 7F), to the EHTs MMP was reduced and cardiac contraction stopped (FIG. 7E).\nDrug-induced cardiotoxicity often damages mitochondrial metabolic activity. We have developed additional assays for quantifying the mitochondrial membrane potential (MMP) of EHTs using the cationic potential metric dye tetramethylrhodamine ethyl ester (TMRE), and we are also assessing EHT viability using 3-(4,5-Dimethylthiazol-2-yl)-2,5-diphenyltetrazolium (MTT). An automated microplate reader was used to measure fluorescence or optical absorbance of these dyes. With these assays, we successfully screened for a small molecule that modulates cellular and tissue contractility without altering MMP and viability of cells (details in Lam, V. and T. Wakatsuki, Hydrogel Tissue Construct-Based High-Content Compound Screening. Journal of Biomolecular Screening, 2011. 16(1): p. 120-128.). Four test compounds were assayed: Rho kinase inhibitor (H1152), cytochalasin D (CD), 2,4-dinitrophenol (DNP), and rotenone (ROT). […] Assays to assess mitochondrial activity and metabolic parameters such as ATP concentrations, O2 consumption and free radical production have been measured using similar techniques, see e.g. Lam, V. and T. Wakatsuki, Hydrogel Tissue Construct-Based High-Content Compound Screening. […]"}, "[2]": {"test_system": "engineered heart tissues (EHTs)", "test": "EHT contractility assay (cardiac twitch force, Palpator)", "quoted_text": "EHTs were fabricated with 1.75-2×10^6 cardiomyocytes/mL using MC-8™ system (InvivoSciences, LLC). The cardiomyocytes were obtained from neonatal rats and guinea pigs, or embryonic mice or chicken. Viable and spontaneously twitching EHTs were generally obtained by day 10 after fabrication. The EHTs were electrically stimulated (60 mV, 1 Hz) during mechanical testing. The mechanical properties of EHTs using the Palpator™ device (InvivoSciences, LLC). This automated device positions a force probe directly above the center of each well (FIG. 7A-i) and moves it vertically in two (or more) steps (FIG. 7A-ii, -iii) to stretch twice the EHT to 3.7% and 7.7% longitudinally. Cardiac twitch (systolic) force and resting (diastolic) force were measured during each step for 30 and 60 s. […] The peak rate at which the cardiac twitch force changes (FIG. 7C) also indicated the contractility (FIG. 7D) of the EHT much like the dP/dtmax of left ventricles measured by pressure catheters.\nTo validate the ability of our assay system to assess cardiotoxicity, we profiled the effects of anti-cancer agents (doxorubicin and daunorubicin) and beta-adrenoceptor agonist (isoproterenol), which are known to cause cardiotoxicity in clinical and experimental applications. […] After a 3-day incubation with doxorubicin (20 nM, 200 nM, or 1 μM) the EHTs were measured again and their viability was determined."}, "[3]": {"test_system": "cardiac fibroblasts / myofibroblasts (mFBs) in EHTs", "test": "Elimination of puromycin-sensitive fibroblasts in EHTs", "assay_type": "cell-based, human", "parameters": "effect on mFBs: dose or concentration left out as unconfirmed", "text": "We fabricated EHTs using CMs derived from mouse ES cells (Cor.AT, Axiogenesis) that express a puromycin resistance-GFP reporter gene fusion driven by a cardiac-specific (αMHC) promoter. These Cor.AT CMs (1.75×10^6) were co-cultured with cardiac fibroblasts (FBs) in a 1:1 ratio (See Asnes, C. F., et al., Reconstitution of the Frank-Starling mechanism in engineered heart tissues. Biophys J, 2006. 91(5): p. 1800-10) for developing a coherently contracting EHT. The EHTs were compressed by the FBs from a loose (6×6×3.5 mm^3) hydrogel into a compacted (˜3×2×0.5 mm^3) coherently contracting tissue in 5-7 days. […] The remodeling capacity of FBs was needed to fabricate compressed 3D tissues that can generate cardiac contraction synchronously. Upon achieving synchronous contraction, the cardiac twitch force was measured using the Palpator. […] We expected that application of a similar protocol to fabricate EHTs with iPSC-derived CMs should produce similar cardiac contractility since individual CMs derived from human ES cells, iPSCs, and native rat hearts produced equivalent degrees of cardiac contractility. Our results showing similar results for human ES cells is below.\nAn increasing density of cardiomyocytes (CMs) in the EHT constructs promoted intercellular contacts to form a synchronously contracting EHT while myofibroblasts (mFBs) remodeled and compressed the constructs. However, an overgrowth of mFBs limited survival of CMs. By regulating the mFB proliferation, cardiac contractility of EHTs without mFBs was maintained at least 10-50% longer than those with mFBs. […] The Cor.AT CMs (1.75×10^6) were co-cultured with mFBs in a 5:1 ratio using previously published method and developed a coherently beating EHT. The EHTs with mFBs were compressed from a loose (6×6×3.5 mm^3) hydrogel into a compacted (˜3×2×0.5 mm^3) tissue in 5-7 days (FIG. 15B). Varying numbers of mFBs were mixed with CMs (e.g., 0.1:1, 0.5:1 up to 1:1) to fabricate EHTs. […]"}, "[4]": {"conditions": "900 μM, short (15-min) administration to EHTs"}}, "data": [{"smiles": "O=[N+]([O-])c1ccc(O)c([N+](=O)[O-])c1", "note": "[DNP, 2,4-dinitrophenol]", "values": [{"measurement": "MMP (mitochondrial membrane potential)", "setting": "[1]; 450 μM", "result": "attenuated"}, {"measurement": "MMP (mitochondrial membrane potential)", "setting": "[1]; [4]", "result": "reduced"}, {"measurement": "EC50", "setting": "[1]; rat EHT, FIG. 14, read-out: EC50 of MMP dissipation", "result": 340, "unit": "µM"}, {"measurement": "cardiac twitch force", "setting": "[2]; 450 μM", "result": "not reduced significantly"}, {"measurement": "cardiac contraction", "setting": "[2]; [4]", "result": "stopped"}, {"measurement": "twitch force", "setting": "[2]; increasing concentrations, FIG. 7E", "result": "reduced"}]}, {"smiles": "COc1ccc(C[C@H](N)C(=O)N[C@H]2[C@@H](O)[C@H](n3cnc4c(N(C)C)ncnc43)O[C@@H]2CO)cc1", "note": "[puromycin]", "values": [{"measurement": "effect on mFBs", "setting": "[3]", "result": "eliminated"}, {"measurement": "effect on puromycin sensitive FBs", "setting": "[3]; 5 μM, after compaction, EHTs with Cor.AT CMs", "result": "eliminated or their viability reduced"}, {"measurement": "effect on mFB in the EHTs", "setting": "[3]; 10 μM, Cor.AT myocytes with human cardiac myofibroblasts", "result": "eliminated"}]}]}
